Test results taken from patent publication US10052317B2, “Method for treating or preventing hot flushes” (Imperial Innovations Limited, priority 2013, dated 2018).
*1 amine or outer side, *2 acyl side, *3 side chain or, on linkers, in order; H or OH if unused. Where a SMILES comes first, the peptide text is derived from it. [ ]: non-standard residue; d: D form. NMeF = CN[C@@H](Cc1ccccc1)C(=O)O; Suc = O=C(CCC(=O)[*:2])[*:1]

Key:
NKR3 = target: T1, NKR3 (Homo sapiens, UniProt P29371); settings: literature (Spooren 2006; Griebel 2012; Elmore 2011); cited from earlier work
T1 sequence (P29371 1-465): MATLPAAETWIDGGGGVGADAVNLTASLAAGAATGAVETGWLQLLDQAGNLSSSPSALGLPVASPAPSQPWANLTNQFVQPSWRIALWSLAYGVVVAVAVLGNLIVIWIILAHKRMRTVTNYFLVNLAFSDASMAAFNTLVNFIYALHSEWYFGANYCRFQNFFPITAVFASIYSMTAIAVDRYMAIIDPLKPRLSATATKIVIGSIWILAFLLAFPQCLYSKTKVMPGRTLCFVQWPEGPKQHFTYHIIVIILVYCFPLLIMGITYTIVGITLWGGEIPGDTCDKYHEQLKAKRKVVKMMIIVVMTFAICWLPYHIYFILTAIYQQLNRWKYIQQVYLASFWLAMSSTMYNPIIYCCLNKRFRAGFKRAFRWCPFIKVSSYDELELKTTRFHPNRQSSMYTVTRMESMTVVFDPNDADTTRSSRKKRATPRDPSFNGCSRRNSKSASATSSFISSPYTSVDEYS

ovariectomised rats = settings: Dacks et al. 2011; cited from earlier work
[1] = system: healthy female volunteers; test: Double-blinded placebo-controlled physiological assessment study during iv infusion of NKB and vehicle to healthy women; format: in vivo, human; settings: for mean HR / mean skin temperature by skin probe / mean skin temperature by thermal imaging camera / mean MAP: NKB infusion
From the text: (§1) Ten healthy female volunteers participated in the study (mean age 35.3±1.3y; mean body mass index 22.1±0.7 kg/m2), following ethical approval (reference: 10/H0707/68) and written consent, in accordance with The Declaration of Helsinki. Participants had no medical problems, were not on any regular medication and had regular menstrual cycles. Participants attended in the mornings and during the follicular phase of their menstrual cycle to minimise physiological changes in body temperature occurring during sleep and associated with ovulation (1) (Day of menstrual cycle: 5.9±0.6)
(§2) Human sequence neurokinin B was obtained and used as described above.
Having observed in Example 3 that participants reported flushing during NKB infusion, a double-blinded placebo-controlled study was carried out. This was performed in a climate-controlled Clinical Research Unit with ambient temperature 24° C. and humidity 50% as has been established in previous studies to be a suitable environment to investigate menopausal flushing (e.g. de Bakker I P, Everaerd W, Maturitas (1996) 25:87-98; Carpenter J S, Gilchrist J M, Chen K, Gautam S, Freedman R R, Menopause: The Journal of The North American Menopause Society (2004) 11:375-381). Participants were admitted on a morning between days 3 and 10 of their menstrual cycle, and asked to lay supine for the 270 minute study duration (FIG. 3). A cannula was inserted into a large forearm vein in both arms: one for collection of blood, and the second for vehicle (gelofusin) or NKB infusion. 30 minute iv infusion of either NKB ([…]) or vehicle (equivalent volume) were commenced at t=60 min and t=180 min, by an investigator blinded to the identity of each infusion. Each participant received one NKB infusion and one vehicle infusion, randomised and prepared by an independent investigator. Participants were informed that they could receive any of the following: NKB followed by vehicle; vehicle followed by NKB; NKB twice; vehicle twice. This strategy ensured integrity of blinding, since any symptoms experienced during the first infusion would not allow participants to automatically deduce the identity of the second infusion.
In order to prevent confounding factors which may affect flushing, participants were asked to refrain from hot drinks, caffeine, alcohol and spicy foods for 12 hours preceding the study start and for the duration of the study. All participants wore light cotton standard hospital gowns. All studies commenced between 9.30-10.30 am. Two experienced physicians were in attendance at all times. Symptoms, heart rate, blood pressure, sweating and skin temperature monitoring were performed as detailed below:
Heart Rate (HR) and Mean Arterial Blood Pressure (MAP): HR was recorded minutely for 20 minutes pre-infusion until 20 minutes post-infusion. MAP was recorded at 5 minute intervals (to minimize discomfort) for 20 minutes pre-infusion until 20 minutes post-infusion. At other times HR and MAP were recorded at 10 minute intervals (FIG. 3). MAP (in mmHg) was calculated using the following standard formula: MAP=((2×diastolic BP)+systolic BP)/3.
Skin Temperature: Skin temperature was recorded each minute for 20 minutes pre-infusion until 20 minutes post-infusion and at 10 minute intervals at other times. Skin temperature was measured by skin temperature probe attached to the neck (Mindray, Huntingdon, UK) and by thermal imaging camera (T440Bx, Flir, Wilsonville, USA). Thermal imaging temperature values were determined by in-built software which recorded the highest temperature point in a box constructed to contain the shoulders and head of the participant.
Skin Conductance: Increased skin conductance is an objective marker of sweating which occurs in menopausal flushing. […]

[2] = system: healthy female volunteers; test: Symptom assessment study during 30-min iv infusion of NKB to healthy women; format: in vivo, human; settings: 5.12 nmol/kg/min iv for 30 min
From the text: as §1, with “Five” for “Ten”, “37.8±1.7y;” for “35.3±1.3y;”, “21.9±0.7” for “22.1±0.7”, “8.0±0.9)” for “5.9±0.6)”
as §2
Participants were admitted in the morning to the Clinical Investigation Unit between days 3 and 10 of their menstrual cycle, and asked to lay supine for the 180 minute study duration (FIG. 2). A cannula was inserted into a large forearm vein and NKB (5.12 nmol/kg/min) was administered by intravenous (iv) infusion for 30 min commencing at t=90 min. This dose of NKB was selected as it was the maximal dose that was well-tolerated dose experiment 1, above. NKB was dissolved in saline containing gelofusin (5% vol/vol) (B. Braun Medical, Sheffield, UK) to minimize peptide adsorption (Kraegen E W, Lazarus L, Meler H, Campbell L, Chia Y O, Br Med J (1974), 3:464-466). Participants (but not investigators) were blinded as to the identity of the infusion (NKB or vehicle, however all participants received NKB). Participants were informed before the study that they may experience body sensations or symptoms and they were asked to report these in real time during the study. Participants were not specifically informed that they may experience ‘hot flush’ symptoms so as to minimise reporting bias.
Data are presented as mean±standard error of mean (SEM). Means were compared using two-tailed paired t-tests. p<0.05 was considered statistically significant.

healthy female subjects = test: 180-min intravenous infusion of NKB to healthy women, hot flush symptom diary; format: in vivo, human
Experimental: Eight healthy female subjects participated in the study, following ethical approval (reference: 10/H0707/68) and written consent, in accordance with The Declaration of Helsinki. All subjects had regular periods. No subjects had any history of hot flushes, deficient levels of sex hormones, or were receiving any regular medications.
as §2
[…] Continuous cardiac monitoring was performed. Heart rate, blood pressure, and adverse symptoms were recorded at regular intervals. Participants were asked to complete a symptom diary in order to measure subjective frequency and problem rating of hot flushes during each study visit. All subjects also completed a questionnaire at the end of each study visit to summarise the symptoms that they experienced that day. Data was analysed by an investigator in a blinded manner.
Data are presented as mean±standard error of mean (SEM). Multiple means were compared using one-way ANOVA with Dunnett's post-hoc test. Pairs of means were compared using paired two-tailed t-tests.

healthy male subjects = test: Dose-finding study with 90-min intravenous infusion of NKB to healthy men; format: in vivo, human
From the text: Human sequence neurokinin B was synthesised by Bachem Holding AG (Bubendorf, Switzerland), and purified by reverse-phase high performance liquid chromatography (HPLC). Electrospray mass spectroscopy and amino acid analysis confirmed identity of the peptide (lot:3007511). The Limulus amoebocyte lysate test detected no endotoxin (Associates of Cape Cod, Liverpool, UK), and bacterial culture was sterile (Department of Microbiology, Hammersmith Hospital, London, UK) in samples of neurokinin B peptide. Vials of freeze-dried neurokinin B were stored at −20° C. and reconstituted in 0.9% saline.
23 healthy male subjects participated in the study (mean age of 23 subjects: 29.0±1.3 years; mean body mass index of 23 subjects: 23.3±0.3 kg/m2), following ethical approval (reference:10/H0707/68) and written consent, in accordance with The Declaration of Helsinki. No subjects had any history of hot flushes, deficient levels of sex hormones, or were receiving any regular medications.
Studies were performed in the Clinical Investigation Unit, during which subjects asked to lay supine. This study was blinded to subjects but not investigators. NKB was dissolved in a vehicle consisting of saline containing Gelofusin (5% vol/vol) (B. Braun Medical, Sheffield, UK) to minimize peptide adsorption. […] Heart rate, blood pressure, and adverse symptoms were recorded at regular intervals. […]

[3] = 5.12 nmol/kg/h iv for 30 min, of the flushing participants
[4] = during flushing symptoms, p<0.05 vs. pre-symptoms
[5] = entire 30 minute NKB infusion period vs vehicle infusion period
[6] = over the entire duration of the infusion

CC[C@H](NC(=O)c1c(O)c(-c2ccccc2)nc2ccccc12)c1ccccc1 [Talnetant, 3-hydroxy-2-phenyl-N-(1-phenylpropyl)quinoline-4-carboxamide]
selectivity for NKR3 over NKR1 and NKR2 (NKR3): selective for NKR3 over NKR1 and NKR2

CSCC[C@H](NC(=O)[C@H](CC(C)C)NC(=O)CNC(=O)[C@H](Cc1ccccc1)N(C)C(=O)[C@H](Cc1ccccc1)NC(=O)[C@H](CC(=O)O)NC(=O)CCC(=O)O)C(N)=O [senktide] (Suc-DF[NMeF]GLM-NH2)
core temperature (ovariectomised rats): reduced core temperature

NKB: Human sequence neurokinin B synthesised by Bachem, purified by reverse-phase HPLC; tachykinin peptide, natural ligand for NKR3
onset of first flushing episodes after NKB infusion initiation ([1]; 5.12 nmol/kg/h iv for 30 min): 1 to 12 min | severity of flushing symptoms ([1]; 5.12 nmol/kg/h iv for 30 min): mild to strong | participants who experienced flushing during NKB infusion ([1]; 5.12 nmol/kg/h iv for 30 min, double-blinded): eight out of ten | participants with a single flushing episode [1, 3]: five | participants with three flushing episodes [1, 3]: two | participants with two flushing episodes [1, 3]: one | participants with concordant increases in sternal skin conductance at the time of flushing ([1]; 5.12 nmol/kg/h iv, of the flushing participants): six of the eight | mean HR [1, 4]: 76.2±1.6 bpm | mean skin temperature by skin probe [1, 4]: 34.7±0.3 Celsius | mean skin temperature by thermal imaging camera [1, 4]: 36.8±0.1 Celsius | mean MAP ([1]; during flushing symptoms, p=ns vs. pre-symptoms): 82.5±2.2 mmHg | mean MAP ([1]; pre-symptom period): 83.2±8.6 mmHg | mean skin temperature by skin probe ([1]; pre-symptom period): 34.6±0.2 Celsius | mean skin temperature by thermal imaging camera ([1]; pre-symptom period): 36.7±0.1 Celsius | mean HR ([1]; pre-symptom period, mean±SEM): 70.3±2.1 bpm | change in serum FSH [1, 5]: No significant changes | change in serum LH [1, 5]: No significant changes | change in serum estradiol [1, 5]: No significant changes | overall change in HR, NKB vs vehicle infusion [1, 6]: No overall changes | overall change in mean arterial blood pressure (MAP), NKB vs vehicle infusion [1, 6]: No overall changes | overall change in skin temperature (skin probe or thermal imaging camera), NKB vs vehicle infusion [1, 6]: No overall changes | participants experiencing flushing who reported a single flushing episode [2]: Three of the four | participants who experienced three flushing episodes [2]: one | participants reporting flushing during NKB infusion ([2]; P<0.05 vs. vehicle): four out of the five | hot flushes experienced (healthy female subjects; healthy women, iv infusion 0.64 nmol/kg/h (lowest dose)): No hot flushes were experienced | healthy women who experienced hot flushes (healthy female subjects; iv infusion 1.28 nmol/kg/h): 1/6 | healthy women who experienced hot flushes (healthy female subjects; iv infusion 2.56 nmol/kg/h): 2/7 | healthy women who experienced hot flushes (healthy female subjects; iv infusion 5.12 nmol/kg/h (highest dose)): 7/8 | mean number of hot flushes per visit (healthy female subjects; iv infusion 5.12 nmol/kg/h, mean±SEM, P<0.01 vs. placebo (0)): 1.13±0.30 | time to full resolution of symptoms after administration was discontinued (healthy male subjects; 10.24 nmol/kg/h): ≤ 5 min | reproductive hormone secretion (healthy male subjects; intravenous administration): did not stimulate significant reproductive hormone secretion

CC(=O)N(C)C1(c2ccccc2)CCN(CCC[C@]2(c3ccc(Cl)c(Cl)c3)CCCN(C(=O)c3ccccc3)C2)CC1 [Osanetant, (R)-N-{{3-[1-Benzoyl-3-(3,4-dichlorophenyl)piperidin-3-yl]prop-1-yl}-4-phenylpiperidin-4-yl}-N-methylacetamine]
selectivity for NKR3 over NKR1 and NKR2 (NKR3): selective for NKR3 over NKR1 and NKR2
